Patent US5607926A, “Cephalosporin antibiotics” (Microcide Pharmaceuticals, Inc., priority 1995, dated 1997)
Converted amounts (≈) assume the structure as drawn. Where two headings read alike, the source gives them in different places.

Columns and labels:
S. aureus ATCC 25923 = experiment: In vitro antibacterial evaluation, MIC by agar dilution, S. aureus ATCC 25923; assay type: cell-based; conditions: Staphylococcus aureus, ATCC25923
Procedure, shortened: (§1)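 Log-phase cultures (4-6 h broth growth) are adjusted to 0.5 McFarland and diluted to give roughly 10^4 cfu per 1 μL spot. Spots go onto Mueller-Hinton agar containing test compound in two-fold dilutions (128 to ≤0.25 μg/mL), then plates incubate 16-20 hours at 35°-36° C before MIC reading.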

S. aureus ATCC 29213 = experiment: In vitro antibacterial evaluation, MIC by agar dilution, S. aureus ATCC 29213; assay type: cell-based; conditions: Staphylococcus aureus, ATCC29213
Procedure, shortened: as §1

S. haemolyticus (Meth^R) = experiment: In vitro antibacterial evaluation, MIC by agar dilution, S. haemolyticus; assay type: cell-based; conditions: Staphylococcus haemolyticus, read-out: MIC
Procedure, shortened: as §1

[1] = system: S. aureus 76 (Meth^R)(lac^+); experiment: In vitro antibacterial evaluation, MIC by agar dilution, S. aureus 76; assay type: cell-based; conditions: Staphylococcus aureus, read-out: MIC
Procedure, shortened: as §1

P. aeruginosa ATCC 27853 = experiment: In vitro antibacterial evaluation, MIC by agar dilution, P. aeruginosa ATCC 27853; assay type: cell-based; conditions: Pseudomonas aeruginosa, ATCC27853, read-out: MIC
Procedure, shortened: as §1

[2] = system: S. epidermidis ATCC 31432; experiment: In vitro antibacterial evaluation, MIC by agar dilution, S. epidermidis ATCC 31432; assay type: cell-based; conditions: Staphylococcus epidermidis, ATCC31432
Procedure, shortened: as §1

E. faecalis ATCC 29212 = experiment: In vitro antibacterial evaluation, MIC by agar dilution, E. faecalis ATCC 29212; assay type: cell-based; conditions: Enterococcus faecalis, ATCC29212; E. faecalis ATCC 29212; read-out: MIC
Procedure, shortened: as §1

[3] = system: S. aureus Col8A (Meth^S)(lac^-); experiment: In vitro antibacterial evaluation, MIC by agar dilution, S. aureus Col8A; assay type: cell-based; conditions: Staphylococcus aureus
Procedure, shortened: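 Log-phase isolates were spot-inoculated at about 10^4 cfu onto Mueller-Hinton agar carrying duplicate two-fold compound levels, 128 μg/mL to ≤0.25 μg/mL, following NCCLS (1991). Plates were read after 16-20 h at 35°-36° C. The lowest growth-inhibiting concentration gave the MIC (μg/ml).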

[4] = system: X. maltophilia ATCC 13637; experiment: In vitro antibacterial evaluation, MIC by agar dilution, X. maltophilia ATCC 13637; assay type: cell-based; conditions: Stenotrophomonas maltophilia, ATCC13637
Protocol: The compounds of the invention were evaluated against several β-lactamresistant bacteria strains by determining the minimum inhibitory concentration (MIC, μg/ml) of each compound with respect to each strain. The MIC, the lowest concentration of antibiotic which inhibits growth of the test organism, was determined by the agar dilution method.
To determine the MIC for bacterial isolates, the test compound was incorporated in a series of two-fold dilutions into liquified Mueller-Hinton agar. Upon solidification, a number of different bacterial strains were spot inoculated with a replicating device onto the agar surface. […] The procedures used in these studies have been standardized by the National Committee for Clinical Laboratory Standards (NCCLS), as per the NCCLS publication entitled METHODS FOR DILUTION ANTIMICROBIAL SUSCEPTIBILITY TESTS (1991), which is incorporated herein by reference.
Aliquots of antimicrobial agents were prepared in phosphate buffered saline (PBS) at pH 7.2. Tween 20 or DMSO was used as a solubilizing vehicle as needed. Standard methods of vortexing, sonicating and gentle heat were used to facilitate solubilizing the test agent. Typically, the concentration of the stock solution was 10× that of the highest drug concentration tested. A 1.28 mg/mL stock solution was used with a subsequent highest working concentration of 128 μg/mL. Serial two-fold dilutions were done through ≤0.25 μg/mL. Each drug level was tested in duplicate. Two-fold drug dilutions were done in sterile 50 mL tubes with a final drug volume of 5 mL. Upon the addition of 45 mL of molten agar, a 10-fold dilution resulted. Two, 25 mL. plates were then poured into 15×150 mm square Petri plates with grids and allowed to harden.
A control plate with a reference drug, either cefotaxime, vancomycin or imipenem, was used as the positive growth control. Stock concentrations of reference antibiotics were prepared and frozen at -80° C. Upon preparation, the control plates were sealed and stored in the refrigerator for up to 1 week prior to use; however, imipenem control plates had to be prepared just prior to use. All test plates were used within 24 hours of preparation.
Satisfactory results were obtained where the inoculum contained about 10^4 colony forming units (cfu) ±0.5 logs. Starting with pure cultures of the test isolates on agar plates, a few isolated colonies were transferred to a tube of nutrient broth and allowed to grow 4-6 hours at 35°-36° C. to reach log-phase growth. Dropwise addition of the broth culture to PBS was done to match a 0.5 McFarland turbidity standard equal to 10^8 cfu/mL. This was further diluted ten-fold in PBS to reach a working inoculum concentration of 10^7 cfu/mL. When 1 μL of the working inoculum was applied to the agar surface a concentration of about 10^4 cfu per spot was obtained.
Disposable sterile 1 μL loops were used to inoculate test plates, with each isolate in a designated grid on the agar plate. An alternate method of inoculation involved the use of a replica plater, a device with 48 steel pins allowing the simultaneous inoculation of multiple isolates. After the spots had dried, the plates were incubated at 35°-36° C. for 16-20 hours. Endpoints were assessed as the minimum inhibitory concentration (MIC) of antimicrobial agent.

E. faecium ATCC 35667 = experiment: In vitro antibacterial evaluation, MIC by agar dilution, E. faecium ATCC 35667; assay type: cell-based; conditions: Enterococcus faecium, ATCC35667, read-out: MIC
Procedure, shortened: as §1

E. coli ATCC 25922 = experiment: In vitro antibacterial evaluation, MIC by agar dilution, E. coli ATCC 25922; assay type: cell-based; conditions: Escherichia coli, ATCC25922, read-out: MIC
Procedure, shortened: as §1

[5] = system: methicillinsusceptible S. aureus strain ATCC 13709; experiment: Challenge strain MIC; assay type: cell-based; conditions: Staphylococcus aureus, ATCC13709, S. aureus ATCC 13709; read-out: Challenge str MIC
Procedure, shortened: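 MIC was found by agar dilution to NCCLS standards: two-fold compound dilutions from 128 μg/mL through ≤0.25 μg/mL in Mueller-Hinton agar, each level in duplicate. Log-phase inocula of about 10^4 cfu per spot were applied. Plates were incubated 16-20 h at 35°-36° C, and the MIC was the lowest concentration inhibiting growth.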

[6] = system: methicillinsusceptible S. aureus strain ATCC 13709; experiment: In vivo antibacterial evaluation, murine model for lethal bacteremic peritonitis; parameters: species or system S. aureus in female Swiss-Webster mice; conditions: Staphylococcus aureus, ATCC13709, sc, 72 h, two equal SC doses at challenge and 2 hours later, mice, probit, read-out: ED50
Procedure, shortened: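 Female Swiss-Webster mice received IP an LD100 bacterial titer in 7% hog gastric mucin, then two equal subcutaneous doses (at challenge and 2 h later) of two-fold increments of drug, range 0.01–512 mg/kg. Survival scored at 72 h; PD50 (total mg/kg) by probit, groups of 10.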

[7] = S. aureus ATCC 29213, read-out: MIC
[8] = S. aureus ATCC 25923, read-out: MIC
[9] = S. epidermidis ATCC 31432, read-out: MIC

Row | Compound | MIC (S. aureus ATCC 25923) [µg/mL] | MIC (S. aureus ATCC 29213; [7]) [µg/mL] | MIC (S. haemolyticus (Meth^R)) [µg/mL] | MIC [1] [µg/mL] | MIC (P. aeruginosa ATCC 27853) [µg/mL] | MIC [2] [µg/mL] | MIC (E. faecalis ATCC 29212) [µg/mL] | MIC [3] [µg/mL] | MIC [4] [µg/mL] | MIC (E. faecium ATCC 35667) [µg/mL] | MIC (E. coli ATCC 25922) [µg/mL] | MIC (S. aureus ATCC 25923; [8]) [µg/mL] | MIC [2, 9] [µg/mL] | MIC [5] [µg/mL] | ED50 [6] [mg/kg] | MIC (S. aureus ATCC 29213) [µg/mL]
1 | O=C(Cc1ccccc1)N[C@@H]1C(=O)N2C(C(=O)O)=C(Sc3ccc(Cl)cc3)CS[C@H]12 [Cmpd 3, (7R)-7-[(Phenylacetyl)amino]-3-(p-chlorophenylthio)-3-cephem-4-carboxylic acid] | < 0.015 | 0.03 (≈ 0.0651 µM) | 16 (≈ 34.7 µM) | 16 (≈ 34.7 µM) | > 32 | < 0.015 | 2 (≈ 4.34 µM) | 0.015 (≈ 0.0325 µM) | > 32 | 4 (≈ 8.68 µM) | > 32 |  |  |  |  | 
2 | O=C(Cc1ccccc1)N[C@@H]1C(=O)N2C(C(=O)O)=C(Sc3ccccc3Cl)CS[C@H]12 [Cmpd 15, (7R)-7-[(Phenylacetyl)amino]-3-(o-chlorophenylthio)-3-cephem-4-carboxylic acid] |  | 0.06 (≈ 0.13 µM) | 16 (≈ 34.7 µM) | 8 (≈ 17.4 µM) | > 32 |  | 2 (≈ 4.34 µM) | 0.06 (≈ 0.13 µM) | > 32 | 2 (≈ 4.34 µM) | > 32 | 0.03 (≈ 0.0651 µM) | 0.03 (≈ 0.0651 µM) |  |  | 
3 | CO/N=C(\C(=O)N[C@@H]1C(=O)N2C(C(=O)O)=C(COC(C)=O)CS[C@H]12)c1csc(N)n1 [Cefotaxime, (7R)-3-Acetoxymethyl-7-[(Z)-2-(aminothiazol-4-yl)-2-(methoxyimino)acetamido]-3-cephem-4-carboxylic acid, reference compound] |  | 2 (≈ 4.39 µM) | > 32 |  | 8 to 16 (≈ 17.6 to 35.1 µM) |  | > 32 | 2 (≈ 4.39 µM) | > 32 | > 32 | < 1 | < 1 | 2 (≈ 4.39 µM) | 2 (≈ 4.39 µM) | 7.47 | 
4 | O=C(Cc1ccccc1)N[C@@H]1C(=O)N2C(C(=O)O)=C(Sc3ccc(Br)cc3-c3ccccc3)CS[C@H]12 [Cmpd 14, (7R)-7-[(Phenylacetyl)amino]-3-(4-bromo-2-biphenylthio)-3-cephem-4-carboxylic acid] |  |  | 8 (≈ 13.8 µM) | 4 (≈ 6.88 µM) | > 32 |  | 2 (≈ 3.44 µM) | 0.25 (≈ 0.43 µM) | > 32 | 1 (≈ 1.72 µM) | > 32 | 0.06 (≈ 0.103 µM) | 0.06 (≈ 0.103 µM) |  |  | 0.25 (≈ 0.43 µM)
5 | O=C(Cc1ccccc1)N[C@@H]1C(=O)N2C(C(=O)O)=C(Sc3ccc(F)cc3)CS[C@H]12 [Cmpd 1, (7R)-7-[(Phenylacetyl)amino]-3-(p-fluorophenylthio)-3-cephem-4-carboxylic acid] |  | 0.03 (≈ 0.0675 µM) | > 32 | 32 (≈ 72 µM) | > 32 |  | 2 (≈ 4.5 µM) | 0.03 (≈ 0.0675 µM) | > 32 | 8 (≈ 18 µM) | > 32 | < 0.015 | < 0.015 |  |  | 
